Values after ≈ are worked out from the molar mass of the structure shown.
How the values were obtained:
[1] = system: Staphylococcus aureus NRRL B313; assay: In vitro MIC, standard agar-dilution assay; type: cell-based; conditions: M43A phosphate salt, vancomycin free base
[2] = system: Staphylococcus aureus V41; assay: In vitro MIC, standard agar-dilution assay; type: cell-based; conditions: M43A phosphate salt, vancomycin free base
[3] = system: Staphylococcus aureus X400; assay: In vitro MIC, standard agar-dilution assay; type: cell-based; conditions: M43A phosphate salt, vancomycin free base
[4] = system: Streptococcus pyogenes C203; assay: In vitro MIC, standard agar-dilution assay; type: cell-based; conditions: M43A phosphate salt, vancomycin free base
[5] = system: Haemophilus influenzae C.L.; assay: In vitro MIC, standard agar-dilution assay; type: cell-based; conditions: M43A phosphate salt, vancomycin free base
[6] = system: Haemophilus influenzae 76; assay: In vitro MIC, standard agar-dilution assay; type: cell-based; conditions: M43A phosphate salt, vancomycin free base
Escherichia coli N10 = assay: In vitro MIC, standard agar-dilution assay; type: cell-based; conditions: M43A phosphate salt, vancomycin free base
Escherichia coli EC14 = assay: In vitro MIC, standard agar-dilution assay; type: cell-based; conditions: M43A phosphate salt, vancomycin free base
Escherichia coli TEM = assay: In vitro MIC, standard agar-dilution assay; type: cell-based; conditions: M43A phosphate salt, vancomycin free base
[7] = system: Klebsiella pneumoniae X26; assay: In vitro MIC, standard agar-dilution assay; type: cell-based; conditions: M43A phosphate salt, vancomycin free base
[8] = system: Klebsiella pneumoniae X68; assay: In vitro MIC, standard agar-dilution assay; type: cell-based; conditions: M43A phosphate salt, vancomycin free base
[9] = system: Klebsiella pneumoniae KAE; assay: In vitro MIC, standard agar-dilution assay; type: cell-based; conditions: M43A phosphate salt, vancomycin free base
[10] = system: Bacteroides corrodens 1874; assay: Susceptibility of anaerobic isolates, agar-dilution MIC; type: cell-based; conditions: read after 24 hrs incubation
Protocol: (§1) . | ^a MIC's were determined by the agardilution method; endpoints were
(§2) read after 24hrs. incubation.

Bacteroides fragilis 111 = assay: as above; type: cell-based; conditions: read after 24 hrs incubation
Protocol: as §1, §2

[11] = system: Bacteroides fragilis 1877; assay: as above; type: cell-based; conditions: read after 24 hrs incubation
Protocol: as §1, §2

[12] = system: Bacteroides fragilis 1936B; assay: as above; type: cell-based; conditions: read after 24 hrs incubation
Protocol: as §1, §2

[13] = system: Bacteroides melaninogenicus 1856/28; assay: as above; type: cell-based; conditions: read after 24 hrs incubation
Protocol: as §1, §2

[14] = system: Bacteroides melaninogenicus 2736; assay: as above; type: cell-based; conditions: read after 24 hrs incubation
Protocol: as §1, §2

[15] = system: Bacteroides thetaiotaomicron 1438; assay: as above; type: cell-based; conditions: read after 24 hrs incubation
Protocol: as §1, §2

[16] = system: Bacteroides vulgatis 1211; assay: as above; type: cell-based; conditions: read after 24 hrs incubation
Protocol: as §1, §2

[17] = system: Clostridium difficile 2994; assay: as above; type: cell-based; conditions: read after 24 hrs incubation
Protocol: as §1, §2

[18] = system: Clostridium septicum 1128; assay: as above; type: cell-based; conditions: read after 24 hrs incubation
Protocol: as §1, §2

[19] = system: Eubacterium aerofaciens 1235; assay: as above; type: cell-based; conditions: read after 24 hrs incubation
Protocol: as §1, §2

[20] = system: Fusobacterium necrophorum 6054A; assay: as above; type: cell-based; conditions: read after 24 hrs incubation
Protocol: as §1, §2

[21] = system: Fusobacterium symbiosum 1470; assay: as above; type: cell-based; conditions: read after 24 hrs incubation
Protocol: as §1, §2

[22] = system: Peptococcus asaccharolyticus 1302; assay: as above; type: cell-based; conditions: read after 24 hrs incubation
Protocol: as §1, §2

Peptococcus prevoti 1281 = assay: as above; type: cell-based; conditions: read after 24 hrs incubation
Protocol: as §1, §2

[23] = system: Peptostreptococcus anaerobius 1428; assay: as above; type: cell-based; conditions: read after 24 hrs incubation
Protocol: as §1, §2

[24] = system: Peptostreptococcus intermedius 1264; assay: as above; type: cell-based; conditions: read after 24 hrs incubation
Protocol: as §1, §2

[25] = system: Propionibacterium acnes 79; assay: as above; type: cell-based; conditions: read after 24 hrs incubation
Protocol: as §1, §2

[26] = system: Clostridium perfringens 81; type: cell-based; conditions: agar dilution, read after 24 hrs incubation
Staphylococcus aureus = assay: Experimental bacterial infection in mice, ED50; type: in vivo; conditions: subcutaneous, two doses, dose protecting 50% of animals
Streptococcus pyogenes = assay: Experimental bacterial infection in mice, ED50; type: in vivo; conditions: subcutaneous, two doses, dose protecting 50% of animals
Streptococcus pneumoniae = assay: Experimental bacterial infection in mice, ED50; type: in vivo; conditions: subcutaneous, two doses, dose protecting 50% of animals
[27] = system: Streptococcus faecium ATCC 9790; conditions: agar dilution, M43A phosphate salt, vancomycin free base
[28] = system: Streptococcus sp. group D 9960; conditions: agar dilution, M43A phosphate salt, vancomycin free base

SMILES: CN[C@H](CC(C)C)C(=O)N[C@H]1C(=O)N[C@@H](CC(N)=O)C(=O)N[C@H]2C(=O)N[C@H]3C(=O)N[C@H](C(=O)N[C@H](C(=O)O)c4cc(O)cc(O)c4-c4cc3ccc4O)[C@H](O)c3ccc(c(Cl)c3)Oc3cc2cc(c3O[C@@H]2O[C@H](CO)[C@@H](O)[C@H](O)[C@H]2O[C@H]2C[C@](C)(N)[C@H](O)[C@H](C)O2)Oc2ccc(cc2Cl)[C@H]1O [Vancomycin]
- MIC [1]: 1 µg/mL
- MIC [2]: 1 µg/mL
- MIC [3]: 1 µg/mL
- MIC [4]: 1 µg/mL
- MIC [5]: 128 µg/mL
- MIC [6]: 32 µg/mL
- MIC (Escherichia coli N10): > 128 µg/mL
- MIC (Escherichia coli EC14): > 128 µg/mL
- MIC (Escherichia coli TEM): > 128 µg/mL
- MIC [7]: > 128 µg/mL
- MIC [8]: > 128 µg/mL
- MIC [9]: > 128 µg/mL
- MIC [10]: 32 µg/mL (≈ 22.1 µM)
- MIC (Bacteroides fragilis 111): 64 µg/mL (≈ 44.2 µM)
- MIC [11]: 32 µg/mL (≈ 22.1 µM)
- MIC [12]: 32 µg/mL (≈ 22.1 µM)
- MIC [13]: > 128 µg/mL
- MIC [14]: 8 µg/mL (≈ 5.52 µM)
- MIC [15]: 16 µg/mL (≈ 11 µM)
- MIC [16]: 16 µg/mL (≈ 11 µM)
- MIC [17]: 2 µg/mL (≈ 1.38 µM)
- MIC [18]: 4 µg/mL (≈ 2.76 µM)
- MIC [19]: 16 µg/mL (≈ 11 µM)
- MIC [20]: 2 µg/mL (≈ 1.38 µM)
- MIC [21]: 2 µg/mL (≈ 1.38 µM)
- MIC [22]: 2 µg/mL (≈ 1.38 µM)
- MIC (Peptococcus prevoti 1281): 2 µg/mL (≈ 1.38 µM)
- MIC [23]: 2 µg/mL (≈ 1.38 µM)
- MIC [24]: 4 µg/mL (≈ 2.76 µM)
- MIC [25]: 2 µg/mL (≈ 1.38 µM)
- MIC [26]: 1 µg/mL (≈ 0.69 µM)
- E50 (Staphylococcus aureus): 1.62 mg/kg/2
- E50 (Streptococcus pyogenes): 1.2 mg/kg/2
- E50 (Streptococcus pneumoniae): 1.47 mg/kg/2
- MIC [27]: 1 µg/mL
- MIC [28]: 4 µg/mL

Source: patent US4548925A, “Antibiotic M43A, pharmaceutical composition and method of use” (Eli Lilly and Company, priority 1984, dated 1985)
